Laboratory results from US7473708B2, “Agents with leukotriene B4-like antiviral (enveloped RNA) activities” (priority 1996, dated 2009).

What was measured:
EBV [1] = experiment: Detection of Epstein-Barr Nuclear Antigen (EBNA) in EBV-infected PBMC (ACIF test); type: cell-based, human; settings: 100 nM analog, PBMC, six days, EBNA by ACIF
Method: After ten days of culture, cells were harvested for determination of the presence of Epstein-Barr Nuclear Antigen (EBNA), a consequence of EBV infection. Preparation of cell smears, fixation and detection of EBNA by the anti-complement immunofluorescence (ACIF) test were carried out as described by Reedman B. M. and Klein G. (Int. J. Cancer, 1973, 11:499). Smears were prepared by spreading 50 μl of a concentrated suspension of washed cells (2×10^6/ml) on clean slides, air dried and fixed in cold acetone (−20° C.) during 10 minutes. Human serum (50 μl) from EBV seropositive donor was used as a source of complement. Slides were incubated at room temperature in a humid chamber during 45 minutes. Slides were then washed three times in phosphate buffer saline (PBS) and stained with 50 μl of fluorescein-5-isothiocyanate (FITC “Isomer I”)-conjugated goat IgG fraction anti-human complement C3 (Cappel Research Products, Durham, N.C.) during 60 minutes at room temperature in a humid chamber. Slides were washed in PBS (3 times), mounted in PBS:glycerol 1:1 and examined. Raji and U937 cells were used as positive and negative controls, respectively. The percentage of EBNA-positive cells was decreased by more than 55% with 30 nM LTB4, and by more than 70% with 100 nM LTB4 (FIG. 2). The results illustrated in FIG. 2 are representative of six (6) other experiments.
(§1) PBMC were infected with EBV and HSV-1 and treated or not with 100 nM of analogs of LTB4 such as 20-OH-LTB4, LTA3 methyl ester, 12(R)-HETE and 5(S), 15(S)-diHETE. After six days of culture, the presence of EBNA antigen (a consequence of EBV infection) was evaluated by the ACIF test, as described in Example I. Similarly, the presence of HSV-1 antigen in PBMC was evaluated by immunofluorescence using an antiserum obtained from a chronically infected donor as described above in section entitled “Detection of Specific HSV-1 Antigen”. […] The results illustrated in Table 1 are representative of three other experiments.

HSV-1 (strain McIntyre) = experiment: Detection of specific HSV-1 antigen in HSV-1-infected PBMC (immunofluorescence); type: cell-based, human; settings: 100 nM analog, six days, antiserum immunofluorescence
Method: Synthesis of the viral antigen was inhibited by 60% in the presence of 100 nM LTB4 (FIG. 4). The results illustrated in FIG. 4 are representative of five (5) other experiments.
as §1

EBV [2] = settings: in vitro, read-out: IC50, viral replication; cited from earlier work
HSV = settings: in vitro, read-out: IC50, viral replication; cited from earlier work

For `CCCCCCCC\C=C/C=C/C=C/[C@@H]1O[C@H]1CCCC(=O)OC` [LTA3 methyl ester, 14,15-dihydro-LTA4 methyl ester], the “EBV infection, percentage of inhibition compared to infected PBMC cultured in the absence of analogs” value (EBV [1]) was 65% and the “HSV-1 infection, percentage of inhibition compared to infected PBMC cultured in the absence of analogs” value (HSV-1 (strain McIntyre)) was 60%.

In the case of `CCCCC/C=C\C[C@@H](O)/C=C/C=C\C/C=C\CCCC(=O)O` [12(R)-HETE, 12(R)-hydroxy-5,8,10,14(Z,Z,E,Z)-eicosatetraenoic acid], the “EBV infection, percentage of inhibition compared to infected PBMC cultured in the absence of analogs” value (EBV [1]) is reported as 65% and the “HSV-1 infection, percentage of inhibition compared to infected PBMC cultured in the absence of analogs” value (HSV-1 (strain McIntyre)) is reported as 70%.

In the case of `O=C(O)CCC[C@H](O)\C=C/C=C/C=C/[C@H](O)C/C=C\CCCCCO` [20-OH-LTB4, 20-hydroxy-LTB4], the “HSV-1 infection, percentage of inhibition compared to infected PBMC cultured in the absence of analogs” value (HSV-1 (strain McIntyre)) is reported as 74%.

For `Nc1nc(O)c2ncn(COC(CO)CO)c2n1` [ganciclovir], the IC50 (EBV [2]) is given as 1000 nM and the IC50 (HSV) is given as 2400 nM.

For `CCCCC[C@H](O)/C=C/C=C\C/C=C\C=C\[C@@H](O)CCCC(=O)O` [5(S),15(S)-diHETE, 5(S),15(S)-dihydroxy-6,8,11,13-(E,Z,Z,E)-eicosatetrae-noic acid], the “EBV infection, percentage of inhibition compared to infected PBMC cultured in the absence of analogs” value (EBV [1]) was 50%.
